Measured values as given in publication PMC6583964, “Identification and functional characterization of D-fructose receptor in an egg parasitoid, Trichogramma chilonis” (PLoS ONE, 2019).

How the values were obtained:
TchiGR43a [1] = target: T1, TchiGR43a (Trichogramma chilonis, UniProt A0A481RL18); assay: two-electrode voltage-clamp of Xenopus oocytes expressing TchiGR43a, dose-response; format: cell-based
T1 construct: full-length open reading frame (549 amino acid residues), expressed in Xenopus laevis oocytes
T1 sequence (A0A481RL18 1-549): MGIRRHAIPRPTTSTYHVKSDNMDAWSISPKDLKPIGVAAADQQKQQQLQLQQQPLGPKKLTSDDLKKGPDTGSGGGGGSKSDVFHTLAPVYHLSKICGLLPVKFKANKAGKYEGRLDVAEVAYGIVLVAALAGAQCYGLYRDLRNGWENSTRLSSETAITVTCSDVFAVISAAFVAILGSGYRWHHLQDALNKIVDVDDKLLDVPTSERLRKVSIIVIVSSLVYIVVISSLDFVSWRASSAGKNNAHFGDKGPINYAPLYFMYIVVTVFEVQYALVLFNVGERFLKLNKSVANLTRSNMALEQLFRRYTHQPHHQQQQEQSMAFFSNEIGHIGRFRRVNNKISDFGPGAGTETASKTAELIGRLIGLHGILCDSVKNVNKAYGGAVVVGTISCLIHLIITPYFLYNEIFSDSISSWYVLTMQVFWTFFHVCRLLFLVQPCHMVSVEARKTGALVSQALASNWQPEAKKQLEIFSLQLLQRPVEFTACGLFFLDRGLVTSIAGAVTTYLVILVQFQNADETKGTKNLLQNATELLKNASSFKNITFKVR

TchiGR43a [2] = target: T1, TchiGR43a; assay: two-electrode voltage-clamp of Xenopus oocytes expressing TchiGR43a, single concentration […] (weaker response than D-fructose); format: cell-based

| SMILES | EC50 (TchiGR43a [1]) [mM] | two-electrode voltage-clamp of Xenopus oocytes expressing TchiGR43a, single conc (TchiGR43a [2]) |
| --- | --- | --- |
| O=C(CO)[C@@H](O)[C@H](O)[C@H](O)CO [D-fructose] | 23 | – |
| O[C@H]1[C@H](O)[C@@H](O)[C@H](O)[C@@H](O)[C@H]1O [myo-inositol] | – | the oocytes expressing TchiGR43a showed responses to D-fructose and myo-inositol |
